Test results as given in patent publication US20240285541A1, “SHELF STABLE ORGANIC NUCLEOTIDE COMPOSITIONS AND METHODS OF MANUFACTURING THE SAME” (Glanbia Nutritionals, Inc., priority 2023, published 2024).

Test: ATP stability over 362 days, processed under acidic and hot-fill conditions
Type: physicochemical
Conditions: acidic conditions (pH 2.8; b60 also says pH 2.5), hot-fill conditions
Text: FIG. 5 is a graphical representation 500 of the unexpectedly good results achieved through the method and composition described in connection with FIG. 4. Specifically, the graphical representation 500 illustrates a comparison of ATP stability for a composition or product of the disclosure (specifically, Formula A prepared according to method 400) compared against a control ATP product processed under acidic conditions (pH 2.5) and hot-fill conditions. The ATP stability measurements were calculated over three hundred sixty-two (362 days). For the control ATP, pH 2.8 (Δ), y=116.03e^−0.012x, R^2=0.966. For the encapsulated ATP Formula A, pH 2.8 (Δ), y=100.37e^−0.003x, R^2=0.9591.
Specifically, Formula A continued to comprise about 33.43 wt % of ATP 100, 200 at the end of the 362 days, compared with the 1.44 wt % of ATP 100, 200 in the control ATP solution.
FIG. 7 is a graphical representation 700 of the unexpectedly good results achieved through the method and composition described in connection with FIG. 6. Specifically, the graphical representation 700 illustrates a comparison of ATP stability for a composition or product of the disclosure (specifically, Formula B prepared according to method 600) compared against a control ATP product processed under acidic conditions (pH 2.8) and hot-fill conditions. ATP stability measurements were calculated over three hundred sixty-two (362) days. […]

Q: With Nc1ncnc2c1ncn2[C@@H]1O[C@H](COP(=O)(O)OP(=O)([O-])OP(=O)([O-])O)[C@@H](O)[C@H]1O.[Na+].[Na+] [control ATP, adenosine triphosphate (ATP) disodium salt] as the compound, how does the “ATP 100, 200 comprised at the end of the 362 days” value read?
A: 1.44 wt %
